Laboratory results: patent US20240360179A1, “STAPLED PEPTIDES AND METHODS THEREOF” (FOG PHARMACEUTICALS, INC., priority 2021, published 2024)

These substances were tested on COLO320DM cells (assay: COLO320DM proliferation assay (CellTiter-Glo)). Settings: read-out: COLO320DM Proliferation Abs IC50.
Assay type: cell-based, human
Protocol: COLO320DM proliferation assay IC50: In some embodiments, inhibition of cell proliferation by provided technologies were assessed using cell lines related to or from certain conditions, disorders or diseases. In some embodiments, cell proliferation was assessed in COLO320DM cells. In some embodiments, assessment was performed using the following procedure: On Day 1, cultured COLO320DM cells in a T75 flask were trypsinized in 3 mL of 0.250% trypsin/EDTA for 5 min and quenched with 10 mL RPMI-1640+4% HI FBS assay media. The cells were spun down at 1200 rpm for 5 min, the cell pellet collected and re-suspended at 5000 cells/mL in assay media. Using a Combi liquid handler, cells were dispensed (50 uL, 250 cells/well) into three 384 well plates. Plates were incubated at 37° C., 5% CO2 for 18-22 h. On day 2, compounds were added. A liquid handling system was used to prepare the compound dilution and dispense compound into assay plates. The compounds were serially diluted 1/2 in 90% DMSO to create a 7 point dose curve. From compound plate, 100 nL of compound were dispensed directly into wells of the assay plates to create a dose curve starting at 20 uM and ending at 313 nM. Assay plates were incubated at 37° C., 5% CO2 for 96 h. On day 6, assay plates were removed from the incubator and allowed to sit at room temperature for 30 min. Using a liquid handler, 20 uL of CellTiter Glo reagent was added to each well. The assay plates were shaken for 2 min and allowed to sit on the bench for 10-15 minutes. The assay plates were read using the CellTiter Glo protocol on a GloMax microplate reader, and the data analyzed using GraphPad Prism. Activities of various agents, including various stapled peptides in Table E2, were confirmed.
In some embodiments, an assessment was performed as follows. On day 0, cells were seeded in cell culture media (RPMI1640, 4% FBS) in a 96-well plate at desired density, typically at 1000 cells/well. On day 1, 10 mM agent stock solution (in DMSO) was first serially diluted into DMSO at 1:2 ratio, followed by diluting with cell culture media at two times of the final concentrations. Finally, agent-containing media were introduced to cell culture wells already having the same volume of cell culture media. Cells were incubated with agents for desired days before lysed for CellTiter-Glo® Luminescent Cell Viability Assay according to the manufacture instruction (Promega, G7570). Luminescent signal was obtained from a microplate reader (GloMax, Promega). Cell viability data was expressed as % relative to DMSO control wells.
Proliferation Assay. In some embodiments, various proliferation assays are utilized to characterize or assess provided technologies. In some embodiments, on day 0, cells were seeded in cell culture media in a 96-well plate at desired density, typically at 1000 cells/well. On day 1, 10 mM compound stock solution was first serially diluted into DMSO, followed by diluting with cell culture media at two times of the final concentrations. Finally, compound-containing media were introduced to cell culture wells already having the same volume of cell culture media. Cells were incubated with compounds for desired days before lysed for CTG according to the manufacture instruction (G7570, Promega). Luminescent signal was obtained from a microplate reader (GloMax, Promega).

Q: Which IC50 does the source give for “Ac-PL3-Asp-Chg-B5-Asp-3COOHF-Aib-Ala-Phe-Lys*3-PyrS2-2ClF-BztA-GlnR*3-NH2 [I-1530]” here?
A: ≤ 10 µM

Q: “Ac-PL3-Asp-Chg-B5-Asp-3COOHF-Aib-Ala-Phe-Lys*3-PyrS2-3Thi-34ClF-GlnR*3-NH2 [I-1037]” was tested. Which IC50 did it give?
A: ≤ 10 µM

Q: Which IC50 does the source give for “Ac-PL3-Asp-Chg-B5-Asp-3COOHF-Aib-Ala-Phe-Lys*3-PyrS2-Phe-34ClF-GlnR*3-NH2 [I-1048]” here?
A: ≤ 10 µM

Q: How did the IC50 turn out when “Ac-PL3-Asp-Chg-B5-Asp-3COOHF-Ala-Ala-Phe-Lys*3-PyrS2-2ClF-34ClF-GlnR*3-NH2 [I-1506]” was run?
A: ≤ 10 µM

Q: With “Ac-PL3-Asp-Chg-B5-Asp-3COOHF-Ala-Ala-Phe-Lys*3-PyrS2-2ClF-BztA-GlnR*3-NH2 [I-1531]” as the substance, how does the IC50 read?
A: ≤ 10 µM

Q: How did the IC50 turn out when “Ac-PL3-Asp-Chg-B5-Asp-3COOHF-CyLeu-Ala-Phe-Lys*3-PyrS2-3Thi-34ClF-GlnR*3-NH2 [I-1044]” was run?
A: ≤ 10 µM

Q: Which IC50 does the source give for “Ac-PL3-Asp-Chg-B5-Asp-3COOHF-CyLeu-Ala-Phe-Lys*3-PyrS2-Phe-34ClF-GlnR*3-NH2 [I-1056]” here?
A: ≤ 10 µM

Q: How did the IC50 turn out when “Ac-PL3-Asp-DipA-B5-Asn-3COOHF-nLeu-Ala-Phe-Lys*3-PyrS2-3Thi-34ClF-GlnR*3-NH2 [I-1638]” was run?
A: ≤ 10 µM

Q: Which IC50 does the source give for “Ac-PL3-Asp-DipA-B5-Asp-3COOHF-Aib-Ala-Phe-Lys*3-PyrS2-3Thi-34ClF-GlnR*3-NH2 [I-1108]” here?
A: ≤ 10 µM

Q: “Ac-PL3-Asp-DipA-B5-Asp-3COOHF-Ala-Ala-Phe-Lys*3-PyrS2-3Thi-34ClF-GlnR*3-Ala-Ala-Ala-[mPEG8]-Lys [I-1705]” was tested. Which IC50 did it give?
A: ≤ 10 µM

Q: Which IC50 does the source give for “Ac-PL3-Asp-DipA-B5-Asp-3COOHF-Ala-Ala-Phe-Lys*3-PyrS2-3Thi-34ClF-GlnR*3-Ala-Ala-Ala-[mPEG37]-Lys [I-1706]” here?
A: ≤ 10 µM

Q: “Ac-PL3-Asp-DipA-B5-Asp-3COOHF-Ala-Ala-Phe-Lys*3-PyrS2-3Thi-34ClF-GlnR*3-Ala-Ala-[Ac-PEG8]-Lys-NH2-NH2 [I-1788]” was tested. Which IC50 did it give?
A: ≤ 10 µM

Q: “Ac-PL3-Asp-DipA-B5-Asp-3COOHF-Ala-Ala-Phe-Lys*3-PyrS2-3Thi-34ClF-GlnR*3-Ala-Ala-[Ac-dPEG2]-Lys-NH2-NH2 [I-1787]” was tested. Which IC50 did it give?
A: ≤ 10 µM

Q: How did the IC50 turn out when “Ac-PL3-Asp-DipA-B5-Asp-3COOHF-Ala-Ala-Phe-Lys*3-PyrS2-3Thi-34ClF-GlnR*3-Ala-Ala-[C18-PEG8]-Lys-NH2-NH2 [I-1792]” was run?
A: ≤ 10 µM

Q: Which IC50 does the source give for “Ac-PL3-Asp-DipA-B5-Asp-3COOHF-Ala-Ala-Phe-Lys*3-PyrS2-3Thi-34ClF-GlnR*3-Ala-Ala-[C18-dPEG2]-Lys-NH2-NH2 [I-1791]” here?
A: ≤ 10 µM

Q: For “Ac-PL3-Asp-DipA-B5-Asp-3COOHF-Ala-Ala-Phe-Lys*3-PyrS2-3Thi-34ClF-GlnR*3-Ala-Ala-[Oct-PEG8]-Lys-NH2-NH2 [I-1790]”, which IC50 is on record?
A: ≤ 10 µM

Q: With “Ac-PL3-Asp-DipA-B5-Asp-3COOHF-Ala-Ala-Phe-Lys*3-PyrS2-3Thi-34ClF-GlnR*3-Ala-Ala-[Oct-dPEG2]-Lys-NH2-NH2 [I-1789]” as the substance, how does the IC50 read?
A: ≤ 10 µM

Q: For “Ac-PL3-Asp-DipA-B5-Asp-3COOHF-Ala-Ala-Phe-Lys*3-PyrS2-3Thi-34ClF-GlnR*3-Ala-Ala-[mPEG8]-Lys-NH2 [I-1703]”, which IC50 is on record?
A: ≤ 10 µM

Q: With “Ac-PL3-Asp-DipA-B5-Asp-3COOHF-Ala-Ala-Phe-Lys*3-PyrS2-3Thi-34ClF-GlnR*3-Ala-Ala-[mPEG37]-Lys-NH2 [I-1704]” as the substance, how does the IC50 read?
A: ≤ 10 µM

Q: For “Ac-PL3-Asp-DipA-B5-Asp-3COOHF-Ala-Ala-Phe-Lys*3-PyrS2-3Thi-34ClF-GlnR*3-NH2 [I-1111]”, which IC50 is on record?
A: ≤ 10 µM

Q: Which IC50 does the source give for “Ac-PL3-Asp-DipA-B5-Asp-3COOHF-Ala-Ala-Phe-Lys*3-PyrS2-3Thi-34ClF-GlnR*3-[mPEG8]-Lys-NH2 [I-1701]” here?
A: ≤ 10 µM

Q: How did the IC50 turn out when “Ac-PL3-Asp-DipA-B5-Asp-3COOHF-Ala-Ala-Phe-Lys*3-PyrS2-3Thi-34ClF-GlnR*3-[mPEG37]-Lys-NH2 [I-1702]” was run?
A: ≤ 10 µM

Q: For “Ac-PL3-Asp-DipA-B5-Asp-3COOHF-Ala-Ala-Phe-Lys*3-PyrS2-3Thi-BztA-GlnR*3-Ala-NH2 [I-982]”, which IC50 is on record?
A: ≤ 10 µM

Q: How did the IC50 turn out when “Ac-PL3-Asp-DipA-B5-Asp-3COOHF-CyLeu-Ala-Phe-Lys*3-PyrS2-2F3MeF-34ClF-GlnR*3-Leu-NH2 [I-1769]” was run?
A: ≤ 10 µM

Q: With “Ac-PL3-Asp-DipA-B5-Asp-3COOHF-CyLeu-Ala-Phe-Lys*3-PyrS2-2F3MeF-34ClF-GlnR*3-Val-NH2 [I-1773]” as the substance, how does the IC50 read?
A: ≤ 10 µM

Q: How did the IC50 turn out when “Ac-PL3-Asp-DipA-B5-Asp-3COOHF-CyLeu-Ala-Phe-Lys*3-PyrS2-2F3MeF-BztA-GlnR*3-Leu-NH2 [I-1770]” was run?
A: ≤ 10 µM

Q: With “Ac-PL3-Asp-DipA-B5-Asp-3COOHF-CyLeu-Ala-Phe-Lys*3-PyrS2-2F3MeF-BztA-GlnR*3-NH2 [I-1766]” as the substance, how does the IC50 read?
A: > 20 µM

Q: Which IC50 does the source give for “Ac-PL3-Asp-DipA-B5-Asp-3COOHF-CyLeu-Ala-Phe-Lys*3-PyrS2-2F3MeF-BztA-GlnR*3-Phe-NH2 [I-1777]” here?
A: ≤ 10 µM

Q: How did the IC50 turn out when “Ac-PL3-Asp-DipA-B5-Asp-3COOHF-CyLeu-Ala-Phe-Lys*3-PyrS2-2F3MeF-BztA-GlnR*3-Ser-NH2 [I-1772]” was run?
A: ≤ 10 µM

Q: With “Ac-PL3-Asp-DipA-B5-Asp-3COOHF-CyLeu-Ala-Phe-Lys*3-PyrS2-2F3MeF-BztA-GlnR*3-Val-NH2 [I-1774]” as the substance, how does the IC50 read?
A: ≤ 10 µM

Q: “Ac-PL3-Asp-DipA-B5-Asp-3COOHF-CyLeu-Ala-Phe-Lys*3-PyrS2-3Thi-34ClF-GlnR*3-Ala-NH2 [I-1118]” was tested. Which IC50 did it give?
A: ≤ 10 µM

Q: How did the IC50 turn out when “Ac-PL3-Asp-DipA-B5-Asp-3COOHF-CyLeu-Ala-Phe-Lys*3-PyrS2-3Thi-34ClF-GlnR*3-NH2 [I-1117]” was run?
A: ≤ 10 µM

Q: “Ac-PL3-Asp-DipA-B5-Asp-3COOHF-Val-Ala-Phe-Lys*3-PyrS2-3Thi-BztA-GlnR*3-Ala-NH2 [I-984]” was tested. Which IC50 did it give?
A: ≤ 10 µM

Q: “Ac-PL3-Asp-DipA-B5-Asp-3COOHF-Val-Ala-Phe-Lys*3-PyrS2-Phe-BztA-GlnR*3-dPro-NH2 [I-1855]” was tested. Which IC50 did it give?
A: ≤ 10 µM

Q: For “Ac-PL3-Asp-DipA-B5-Asp-3COOHF-nLeu-Ala-Phe-Lys*3-PyrS2-3Thi-BztA-GlnR*3-Ala-NH2 [I-986]”, which IC50 is on record?
A: ≤ 10 µM

Q: Which IC50 does the source give for “Ac-PL3-Asp-DipA-B5-aThr-3COOHF-nLeu-Ala-Phe-Lys*3-PyrS2-3Thi-34ClF-GlnR*3-NH2 [I-1639]” here?
A: ≤ 10 µM

Q: How did the IC50 turn out when “Ac-PL3-Asp-Ile-B5-Asp-3COOHF-Aib-Ala-Phe-1MeK*3-PyrS2-Phe-34ClF-GlnR*3-NH2 [I-1369]” was run?
A: ≤ 10 µM

Q: For “Ac-PL3-Asp-Ile-B5-Asp-3COOHF-Aib-Ala-Phe-1MeK*3-PyrS2-Phe-34ClF-hGlnR*3-NH2 [I-1373]”, which IC50 is on record?
A: > 20 µM

Q: For “Ac-PL3-Asp-Ile-B5-Asp-3COOHF-Aib-Ala-Phe-GlnR*3-PyrS2-Phe-34ClF-1MeK*3-NH2 [I-1370]”, which IC50 is on record?
A: ≤ 10 µM

Q: “Ac-PL3-Asp-Ile-B5-Asp-3COOHF-Aib-Ala-Phe-GlnR*3-PyrS2-Phe-34ClF-AsnEDA*3-NH2 [I-1376]” was tested. Which IC50 did it give?
A: ≤ 10 µM

Q: Which IC50 does the source give for “Ac-PL3-Asp-Ile-B5-Asp-3COOHF-Aib-Ala-Phe-GlnR*3-PyrS2-Phe-34ClF-Lys*3-NH2 [I-1367]” here?
A: ≤ 10 µM

Q: How did the IC50 turn out when “Ac-PL3-Asp-Ile-B5-Asp-3COOHF-Aib-Ala-Phe-Lys*3-PyrS2-2FF-34ClF-GlnR*3-NH2 [I-1539]” was run?
A: ≤ 10 µM

Q: For “Ac-PL3-Asp-Ile-B5-Asp-3COOHF-Aib-Ala-Phe-Lys*3-PyrS2-2MeF-34ClF-GlnR*3-NH2 [I-1508]”, which IC50 is on record?
A: ≤ 10 µM

Q: How did the IC50 turn out when “Ac-PL3-Asp-Ile-B5-Asp-3COOHF-Aib-Ala-Phe-Lys*3-PyrS2-Phe-3BrF-GlnR*3-NH2 [I-1604]” was run?
A: ≤ 10 µM

Q: Which IC50 does the source give for “Ac-PL3-Asp-Ile-B5-Asp-3COOHF-Aib-Ala-Phe-Lys*3-PyrS2-Phe-3ClF-GlnR*3-NH2 [I-1598]” here?
A: ≤ 10 µM

Q: For “Ac-PL3-Asp-Ile-B5-Asp-3COOHF-Aib-Ala-Phe-Lys*3-PyrS2-Phe-34ClF-hGlnR*3-NH2 [I-1371]”, which IC50 is on record?
A: > 20 µM
